In ChEMBL document CHEMBL1149667, “Synthesis of ferulic ester dimers, functionalisation and biological evaluation as potential antiatherogenic and antiplasmodial agents” (Bioorg Med Chem, 2007):
Active and inactive are the calls of the source. The calls are words filed in the database; no cut-off is given here.

Experiments:
HMEC-1 [1] = assay: (§1) Cytoprotective effect on HMEC1 cells assessed as cell viability by MTT assay; assay type: functional; settings: Homo sapiens
HMEC-1 [2] = assay: (§2) Cytoprotective effect on HMEC1 cells assessed as cell viability at 10 uM after 24 hrs by MTT assay; assay type: functional; settings: Homo sapiens
HMEC-1 [3] = assay: Effect on HMEC1 cells-mediated LDL oxidation at 10 uM after 6 hrs by TBARS assay; assay type: functional
P388 [4] = assay: Cytotoxicity against mouse P388 cells at 10 ug/mL after 72 hrs; assay type: functional; settings: P388, 72 h
[5] = as §1; assay type: functional, Homo sapiens, HMEC-1
Plasmodium falciparum [6] = assay: Antiplasmodial activity against Plasmodium falciparum FCM29 at 10 ug/mL as [3H]hypoxanthine uptake; assay type: functional
[7] = as §2; assay type: functional; settings: Homo sapiens, HMEC-1, 24 h, read-out: Activity
Plasmodium falciparum [8] = assay: Antiplasmodial activity against Plasmodium falciparum FCM29 by [3H]hypoxanthine uptake; assay type: functional, organism-based
P388 [9] = assay: Cytotoxicity against mouse P388 cells after 72 hrs; assay type: functional, cell-based; settings: P388, 72 h
HMEC-1 [10] = assay: Effect on HMEC1 cells-mediated LDL oxidation at 100 uM after 6 hrs by TBARS assay; assay type: functional, cell-based; settings: Homo sapiens

Compound	Activity (HMEC-1 [1])	Activity (HMEC-1 [2])	Activity (HMEC-1 [3]; Homo sapiens)	inhibition at 10 µg/mL (P388 [4])	Activity [5]	inhibition at 10 µg/mL (Plasmodium falciparum [6])	viability at 10 µM [7]	IC50 (Plasmodium falciparum [8])	Activity (HMEC-1 [3])	IC50 (P388 [9])	Activity (HMEC-1 [10])
VITAMIN E	29%	40%	55%								
COC(=O)/C=C/c1cc(OC)c2c(c1)C(COC(=O)c1cc(O)c(O)c(O)c1)C(c1ccc(O)c(OC)c1)O2 (stereo not drawn)				16.4%	59.9%	93.7%	40%	798 nM	2.2%		
CC(C)(Sc1cc(C(C)(C)C)c(O)c(C(C)(C)C)c1)Sc1cc(C(C)(C)C)c(O)c(C(C)(C)C)c1 [PROBUCOL]					92%		55%		10%		
COC(=O)/C=C/c1cc(OC)c2c(c1)C(C(=O)OC)C(c1ccc(O)c(OC)c1)O2 (stereo not drawn)	Active		Active	85.2%		0%	40%			772 nM	
COC(=O)/C=C/c1ccc(O/C(=C\c2ccc(O)c(OC)c2)C(=O)OC)c(OC)c1	Active		Active	0%		23.8%	40%				
COC(=O)/C=C/c1cc(OC)c2c(c1)C(CO)C(c1ccc(O)c(OC)c1)O2 (stereo not drawn)				8.63%		25.7%	40%				Active
CC[C@@]1(O)C(=O)OCc2c1cc1n(c2=O)Cc2cc3ccccc3nc2-1 [CAMPTOTHECIN]										32.1 nM	
